{"source": "patent US20190203230A1", "about": "“POROUS MEMBRANE-BASED MACROMOLECULE DELIVERY SYSTEM” (NOVARTIS AG, priority 2016, published 2019)", "tested_on": "HbF", "test": "Erythroid differentiation and HbF detection by flow cytometry", "assay_type": "cell-based, human", "settings": "erythroid differentiation, flow cytometry (days 7 and 14 collected; day of the values not stated); UNC0638 at 0.5 μM", "protocol": "The present teachings (herein also referred to as TRIAMF for brevity) were applied for the delivery of RNPs consisting of guides targeting the HBG […] to recapitulate the genotype of a form of hereditary persistent fetal hemoglobin found in many patients. […] Through a combination of next generation sequencing (NGS) and quantitative PCR (qPCR), editing efficiency at the target site was determined to be a total average of 63% total editing.\nFIG. 20 depicts percentage of HbF cells at D7 and D14 of erythroid differentiation protocol of WT, mock treated, HBG edited, and UNC0638 (Blood. 2015, July 30:126(5):665-72) positive control treated cells. Cells were analyzed by fixation and staining of CD235a,CD71, and HbF. The cells were collected on days 7 and 14 and stained with CD235a, CD71, and fetal hemoglobin, and analyzed with flow cytometry. […]", "data": [{"compound": "COc1cc2c(NC3CCN(C(C)C)CC3)nc(C3CCCCC3)nc2cc1OCCCN1CCCC1", "note": "[UNC0638]", "values": [{"measurement": "cells expressed HbF", "value": 92, "unit": "%"}]}]}
